Measured values published in publication PMC5795052 (Open Biology, 2018).
pEC50: −log10 of the molar value.

How the values were obtained:
ACKR3 [1] = system: ACKR3; design: method as in PMID 27875312; details: BRET-based assay; CXCL12 versus CXCL11; ref [30]; cited from earlier work
AVPR1A [2] = target: T1, AVPR1A (Homo sapiens, UniProt P37288); assay: β-arrestin 2 recruitment assay (PRESTO-Tango) for AVPR1A without ACKR3 co-expression; type: cell-based; design: FLAG (N); Tango module (C-terminal fusion of the PRESTO-Tango plasmid); host or cells: HTLA cells (HEK293 line with tTA-dependent luciferase reporter and β-arrestin 2–TEV fusion); details: AVPR1A-Tango/pcDNA3; n = 3; figure 9c
Description: (§1) The human AVPR1A cDNA sequence was from the AVPR1A-TANGO plasmid (Addgene, plasmid #66225). The hRLuc cDNA was PCR-amplified from pIRES-Myc-hCXCR4-Rluc, which was generously provided by Dr Michel Bouvier, with primers carrying the AgeI and XbaI sites at either end, respectively, and ligated with the C-terminus of AVPR1A at the corresponding sites. Human CXCR4 and ACKR3 cDNAs were from the CXCR4-TANGO (Addgene, plasmid #66262) and the ACKR3-TANGO (Addgene, plasmid #66265) plasmids. The EYFP cDNA was PCR-amplified from pEYFP with primers harbouring AgeI and XbaI sites and ligated with the C-terminus of ACKR3. All plasmids were confirmed by sequencing.
(§2) hVSMCs (primary aortic smooth muscle cells, ATCC PCS-100-012), A7r5 cells (ATCC-CRL-1444) and HEK293T cells (ATCC-CRL-11268) were purchased from American Type Culture Collection. hVSMCs were cultured in vascular basal media (ATCC PCS-100-030) supplemented with the vascular smooth muscle growth kit (ATCC PCS-100-042), containing 100 U ml^−1 penicillin and 100 µg ml^−1 streptomycin. hVSMCs were used between passages 2–5. HEK293T and A7r5 cells were cultured in high-glucose Dulbecco's Modified Eagle's Medium containing 10 mg ml^−1 sodium pyruvate, 2 mM L-glutamine, 10% (vol/vol) FBS, 1× non-essential amino acids, 100 U ml^−1 penicillin and 100 µg ml^−1 streptomycin. […]
Target sequence in this assay (P37288 whole entry, the tested form may be a part): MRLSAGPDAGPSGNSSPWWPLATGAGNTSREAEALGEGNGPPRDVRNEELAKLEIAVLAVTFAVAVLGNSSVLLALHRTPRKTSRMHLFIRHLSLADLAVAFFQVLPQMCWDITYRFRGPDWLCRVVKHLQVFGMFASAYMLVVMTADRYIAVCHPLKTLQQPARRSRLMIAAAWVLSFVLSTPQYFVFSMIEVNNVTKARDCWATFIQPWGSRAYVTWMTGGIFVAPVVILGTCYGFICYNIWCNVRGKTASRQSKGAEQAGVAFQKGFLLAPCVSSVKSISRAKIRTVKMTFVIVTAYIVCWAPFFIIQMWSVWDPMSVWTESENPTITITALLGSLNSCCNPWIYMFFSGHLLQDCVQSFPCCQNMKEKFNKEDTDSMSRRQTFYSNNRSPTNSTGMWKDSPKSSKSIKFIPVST

AVPR1A [3] = target: T1, AVPR1A; assay: β-arrestin 2 recruitment assay (PRESTO-Tango) for AVPR1A co-expressed with HA-ACKR3; type: cell-based; design: FLAG (N); Tango module (C-terminal fusion of the PRESTO-Tango plasmid); ACKR3 cDNA from plasmid #66265; host or cells: HTLA cells (HEK293 line with tTA-dependent luciferase reporter and β-arrestin 2–TEV fusion); details: n = 3, figure 9c
Description: as §1, §2
Target sequence in this assay (P37288 whole entry, the tested form may be a part): as above
Target sequence in this assay (P25106 whole entry partner, the tested form may be a part): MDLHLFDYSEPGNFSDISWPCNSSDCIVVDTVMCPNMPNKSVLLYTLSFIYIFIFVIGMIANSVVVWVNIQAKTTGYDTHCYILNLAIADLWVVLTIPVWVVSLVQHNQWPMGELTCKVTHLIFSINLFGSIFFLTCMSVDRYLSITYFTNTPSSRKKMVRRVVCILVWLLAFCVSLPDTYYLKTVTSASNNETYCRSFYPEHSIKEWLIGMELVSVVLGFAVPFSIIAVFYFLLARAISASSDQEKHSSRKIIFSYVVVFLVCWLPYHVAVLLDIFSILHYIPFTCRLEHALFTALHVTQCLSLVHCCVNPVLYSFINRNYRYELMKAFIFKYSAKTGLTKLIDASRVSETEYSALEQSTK

[4] = system: aVP-induced IP3 production in hVSMC; assay: IP3 production (ELISA) in hVSMC upon aVP stimulation; type: cell-based, human; details: ACKR3 ligands 1 µM, 15 min, then 1 µM aVP for 5 min; n = 4; figure 1f; *p < 0.05 versus vehicle-treated cells
Description: (§3) hVSMCs (primary aortic smooth muscle cells, ATCC PCS-100-012), A7r5 cells (ATCC-CRL-1444) and HEK293T cells (ATCC-CRL-11268) were purchased from American Type Culture Collection. hVSMCs were cultured in vascular basal media (ATCC PCS-100-030) supplemented with the vascular smooth muscle growth kit (ATCC PCS-100-042), containing 100 U ml^−1 penicillin and 100 µg ml^−1 streptomycin. hVSMCs were used between passages 2–5. HEK293T and A7r5 cells were cultured in high-glucose Dulbecco's Modified Eagle's Medium containing 10 mg ml^−1 sodium pyruvate, 2 mM L-glutamine, 10% (vol/vol) FBS, 1× non-essential amino acids, 100 U ml^−1 penicillin and 100 µg ml^−1 streptomycin. The HTLA cell line, a HEK293 cell line stably expressing a tTA-dependent luciferase reporter and a β-arrestin 2–TEV fusion gene were generously provided by the laboratory of Dr Bryan Roth and maintained in high-glucose Dulbecco's Modified Eagle's Medium supplemented with 10% (vol/vol) FBS, 1× non-essential amino acids, 100 U ml^−1 penicillin, 100 µg ml^−1 streptomycin, 50 µg ml^−1 hygromycin B and 2 µg ml^−1 puromycin. All cells were cultured in a humidified environment at 37°C, 5% CO2.
ACKR3 and CXCR4 siRNA gene silencing was performed as described previously. In brief, cells were grown in 2 ml Accell siRNA delivery media per well (Dharmacon) in six-well plates (Nunc). Commercially available Accell ACKR3 and CXCR4 siRNA were reconstituted with 1× siRNA buffer to a stock concentration of 100 µM. Cells were then transfected with 1 µM ACKR3/CXCR4 siRNA and incubated for 72 h at 37°C, 5% CO2. Accell NT-siRNA pool was used as a negative control. After 72 h, cells were assayed for receptor cell surface expression and used for signalling experiments.
IP3 enzyme-linked immunosorbent assays were purchased from LS Bio and performed as per the manufacturer's protocol (LS BIO F10644). In brief, hVSMCs were grown to confluency in six-well dishes (Nunc) and then treated as described in the Results section. Cells were then washed once with cold PBS, 225 µl of cold PBS was added to each well and cells were lysed by ultrasonication. The cell lysate was centrifuged for 10 min at 4°C at 1500g to remove cellular debris. The total protein concentration in the supernatant was determined with the Bio-Rad DC Protein Assay as per the manufacturer's protocol (Bio-Rad 500-0116). Equivalent amounts of total protein were added to the ELISA strips diluted in the provided sample diluent (1 : 5 and 1 : 10). The assay was then completed as per the manufacturer's protocol. Optical densities were read on a Biotek Synergy II microplate reader (absorbance at 450 nm), and IP3 concentrations were extrapolated from the standard curve.

[5] = system: rat mesenteric arteries (aVP-induced vasoconstriction); assay: Pressure myography, aVP-preconstricted isolated rat mesenteric arteries; details: 10 µM ligand
Description: (§5) (a,b) Pressure myography with rat mesenteric arteries. […] (d) Pressure myography experiments as in (a); PE-induced vasoconstriction. All ACKR3 ligands were tested at a concentration of 10 µM. […] All ACKR3 ligands were tested at a concentration of 10 µM.
(§6) Pressure myography was performed as described in detail previously with slight modifications [7, 63]. Male Sprague–Dawley rats (Harlan) were anaesthetized with 3.5% isoflurane. The mesentery was immediately removed and placed in 130 mM NaCl, 4.7 mM KCl, 1.18 mM KH2PO4, 1.17 mM MgSO4, 14.9 mM NaHCO3, 5.5 mM D-glucose, 0.026 mM EDTA and 1.16 mM CaCl2 aerated with 95% O2, 5% CO2 at 37°C. The animal was then euthanized by cardiectomy and bilateral decompression of the lungs. Third- or fourth-order mesenteric arteries were dissected free from the mesentery, mounted onto two glass cannulae with United States Pharmacopeia (USP) scale 11-0 sutures and pressurized to 80 mmHg in a DMT 110P pressure myograph system (DMT-USA). The intraluminal solution and the vessel bath solution were the same as described before. The vessel bath solution was continuously aerated with 95% O2, 5% CO2 throughout the experiment.

ACKR3 [6] = assay: β-arrestin 2 recruitment assay (PRESTO-Tango) for ACKR3 co-expressed with pcDNA3 or HA-AVPR1A; type: cell-based, human; details: ACKR3-Tango/HA-AVPR1A versus ACKR3-Tango/pcDNA3; n = 3; figure 9e,f
Description: as §1, §3
The PRESTO-Tango (parallel receptorome expression and screening via transcriptional output, with transcriptional activation following arrestin translocation) assay was performed as recently described. The Tango plasmids were a gift from Dr Bryan Roth (all from Addgene). HTLA cells (2.5 × 10^5 per well) were seeded in a six-well plate and transfected with 1.5 µg of the Tango plasmids using Lipofectamine 3000 (ThermoScientific). The following day, transfected HTLA cells (1 × 10^5 cells per well) were plated onto poly-L-lysine precoated 96-well microplates and allowed to attach to the plate surface for at least 4 h prior to treatment. Proteins used for treatment were prepared in twice the final concentration in culture media, added at a 1 : 1 vol/vol ratio and incubated overnight at 37°C, 5% CO2 in a humidified environment. The following morning, media were removed from cell culture plates and replaced with a 100 µl 1 : 5 mixture of Bright-Glo (Promega) and 1× HBSS, 20 mM HEPES solution. Plates were then incubated at room temperature before measuring luminescence on a Biotek Synergy II plate reader.

ACKR3 [7] = assay: β-arrestin 2 recruitment assay (PRESTO-Tango) for ACKR3; type: cell-based, human
Description: as §1
as §3, with “All cells were cultured in a humidified environment at 37°C, 5% CO2.” left out
The PRESTO-Tango (parallel receptorome expression and screening via transcriptional output, with transcriptional activation following arrestin translocation) assay was performed as recently described. […] Plates were then incubated at room temperature before measuring luminescence on a Biotek Synergy II plate reader.

[8] = system: rat mesenteric arteries (PE-induced vasoconstriction); assay: Pressure myography, PE-preconstricted isolated rat mesenteric arteries; details: 10 µM ligand; for effect on PE-induced vasoconstriction, comparison of ACKR3 ligands: 2 µM PE, figure 1d, vehicle n = 5, CXCL11 n = 7, CXCL11 (3–73) n = 9, CXCL12 n = 14, p < 0.05 vehicle versus CXCL11 and CXCL12, p > 0.05 CXCL11 versus CXCL12; for effect on PE-induced vasoconstriction (outer diameter % change): arteries at 80 mmHg preconstricted with 2 µM PE, figure 1a, vehicle n = 4, CXCL11 n = 6, ubiquitin n = 7, *p < 0.05 versus vehicle
Description: as §5, §6

ACKR3 [9] = assay: Receptor internalization by flow cytometry, ACKR3; type: cell-based, human; details: hVSMC, 1 µM agonist, up to 60 min; n = 3; figure 10c
Description: (§4) The cells were washed once with ice cold DPBS, blocked and stained with rabbit anti-AVPR1A (Bioss BS-11598R) and mouse anti-ACKR3 (R&D MAB42273) antibodies at 1 : 200 dilution for 1 h on ice. Cells were then washed twice with FACS wash buffer (1× PBS, 2% FBS and 0.01% NaN3), and secondary antibodies were added at a 1 : 500 dilution and incubated for 30 min on ice (donkey anti-rabbit Alexa Fluor 647, Invitrogen A-31573 and donkey anti-mouse Alexa Fluor 488, Invitrogen A-21202). Cells were washed twice with FACS wash buffer and then fixed with 4% paraformaldehyde at room temperature for 15 min. After two additional washes, the cells were counted on a BD FACS Canto II (BD Biosciences) flow cytometer. The fluorescence intensities of at least 3 × 10^4 cells were recorded and analysed using the FlowJo software (Tree Star).

AVPR1A [10] = assay: Receptor internalization by flow cytometry, AVPR1A; type: cell-based, human; details: hVSMC, 1 µM agonist, up to 60 min; n = 3; figure 10b
Description: as §4

ACKR3 [11] = system: ACKR3; design: method as in 2 sources, one per row (each row's own in cited_ref): ref [29]–[32] = [29]; PMID 16940167; doi:10.1084/jem.20052144; 29 Burns JM et al. 2006 A novel chemokine receptor for SDF-1 and I-TAC involved in cell survival, cell adhesion, and tumor development . J. Exp. Med. 203 , 2201 – 2213 . ( doi:10.1084/jem.20052144 ) 1 || [30]; PMID 27875312; doi:10.1074/jbc.M116.762252; 30 Benredjem B , Girard M , Rhainds D , St-Onge G , Heveker N 2017 Mutational analysis of atypical chemokine receptor 3 (ACKR3/CXCR7) interaction with its chemokine ligands CXCL11 and CXCL12 . J. Biol || [31]; PMID 9918548; 31 Gifford AN , Bruneus M , Gatley SJ , Lan R , Makriyannis A , Volkow ND 1999 Large receptor reserve for cannabinoid actions in the central nervous system . J. Pharmacol. Exp. Ther. 288 , 478 – 483 . || [32]; PMID 8779988; doi:10.1152/ajplung.1996.270.2.L199; 32 Ethier MF , Schaefer OP , Samant N , Yamaguchi H , Madison JM 1996 Muscarinic receptor reserve for inhibition of cAMP accumulation in bovine trachealis cells . Am. J. Physiol. 270 , L199 – L207 . 8 ||| ref [24] = [24]; PMID 21757744; doi:10.1074/jbc.M111.233742; 24 Saini V , Staren DM , Ziarek JJ , Nashaat ZN , Campbell EM , Volkman BF , Marchese A , Majetschak M 2011 The CXC chemokine receptor 4 ligands ubiquitin and stromal cell-derived factor-1alpha functi; details: ref [24]; cited from earlier work

pEC50 (ACKR3 [7]; HTLA cells, overnight at 37°C, luminescence, n = 3 independent experiments, 95% confidence interval in brackets, read-out: EC50 (95% CI) β-arrestin 2 recruitment to ACKR3) | Substance | potency to induce β-arrestin recruitment to ACKR3, fold higher than CXCL11 (ACKR3 [1]) | β-arrestin 2 recruitment to AVPR1A-Tango by chemokines, absence of ACKR3 (AVPR1A [2]) | β-arrestin 2 recruitment to AVPR1A-Tango by chemokines, presence of ACKR3 (AVPR1A [3]) | effect of ACKR3 ligand pretreatment on aVP-induced IP3 production [4] | effect on aVP-induced vasoconstriction, comparison of ACKR3 ligands ([5]; 0.5 nM aVP, figure 1e, vehicle n = 4, CXCL11 n = 3, CXCL11 (3–73) n = 3, CXCL12 n = 3, p < 0.05 vehicle versus CXCL11 and CXCL12, p > 0.05 CXCL11 versus CXCL12) | effect of AVPR1A co-expression on efficacy to recruit β-arrestin 2 to ACKR3-Tango (ACKR3 [6]) | effect of AVPR1A co-expression on potency to recruit β-arrestin 2 to ACKR3-Tango (ACKR3 [6]) | potency to recruit β-arrestin 2 to ACKR3, fold higher than CXCL11 (ACKR3 [7]; CXCL12 versus CXCL11, p < 0.01) | efficacy for β-arrestin 2 recruitment to ACKR3 (in words) (ACKR3 [7]; HTLA cells, n = 3, CXCL11 versus CXCL12) | effect on PE-induced vasoconstriction, comparison of ACKR3 ligands [8] | ACKR3 cell surface expression after agonist (ACKR3 [9]) | effect on PE-induced vasoconstriction (outer diameter % change) [8] | AVPR1A cell surface expression after agonist (AVPR1A [10]) | binding to ACKR3 (ACKR3 [11]) | effect on aVP-induced vasoconstriction (outer diameter % change) ([5]; arteries at 80 mmHg preconstricted with 0.5 nM aVP, figure 1b, *p < 0.05 versus vehicle)
8.89 | C-X-C chemokine ligand 12 [CXCL12] | twofold higher | did not induce β-arrestin 2 recruitment to AVPR1A-Tango | did not induce β-arrestin 2 recruitment to AVPR1A-Tango | inhibited aVP-induced IP3 production | attenuated PE- and aVP-induced vasoconstriction to a similar degree | significantly reduced the efficacy | without affecting the potency | 2.2 -fold | comparable efficacy | attenuated PE- and aVP-induced vasoconstriction to a similar degree | – | – | – | – | –
– | CXCL11: ACKR3 and CXCR3 agonist, from Protein Foundry | – | – | did not induce β-arrestin 2 recruitment to AVPR1A-Tango | – | – | significantly reduced the efficacy | without affecting the potency | – | – | attenuated PE- and aVP-induced vasoconstriction to a similar degree | time-dependently reduced expression levels of both AVPR1A and ACKR3 | antagonized PE-induced vasoconstriction | time-dependently reduced expression levels of both AVPR1A and ACKR3 | – | –
– | ubiquitin | – | – | – | – | – | – | – | – | – | – | – | enhanced PE-induced vasoconstriction | – | does not bind to ACKR3 | did not affect aVP-induced vasoconstriction
